# Source: patent publication US20050143472A1, “Novel treatment for pathologies associated with oxidative damage” (priority 2002, published 2005)
# Like-named read-outs stand apart in the source and are kept apart here.
# Key:
# mPAO = target: T1, mPAO (Mus musculus, UniProt Q8C0L6); assay: HPLC analysis of PAO oxidation products; type: biochemical, murine
# T1 construct: the full length cDNA of mpao was released by Nde I and Hind III treatment, and ligated into Nde I and Hind III sites of pET29c; made in house; host or cells: E. coli BL21 GOLD (DE3), plasmid pET-MPAO (pET29c)
# T1 sequence (Q8C0L6 whole entry E184K/L285S/R416L/R417S/Q419R/E451A/V490I/S491G/V497A): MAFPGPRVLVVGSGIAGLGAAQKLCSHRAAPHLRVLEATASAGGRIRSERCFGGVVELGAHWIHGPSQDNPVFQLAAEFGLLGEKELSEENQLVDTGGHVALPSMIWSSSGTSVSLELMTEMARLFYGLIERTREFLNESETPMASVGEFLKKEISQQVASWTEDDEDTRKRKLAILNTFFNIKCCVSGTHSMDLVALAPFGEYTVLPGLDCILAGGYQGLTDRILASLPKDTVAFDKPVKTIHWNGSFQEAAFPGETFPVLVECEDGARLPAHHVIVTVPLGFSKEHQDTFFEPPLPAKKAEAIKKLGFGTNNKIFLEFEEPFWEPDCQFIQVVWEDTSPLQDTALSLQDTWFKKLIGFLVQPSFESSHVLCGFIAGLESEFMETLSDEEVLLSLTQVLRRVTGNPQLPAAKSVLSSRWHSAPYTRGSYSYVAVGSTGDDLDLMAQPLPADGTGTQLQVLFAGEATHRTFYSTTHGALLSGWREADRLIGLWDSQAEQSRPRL
# From the text: In this example, methods are described for determining the nature of the products of substrate oxidation by PAO. In a solution at pH 7.6 containing catalase to destroy H2O2, mPAO and N^1-acetyl-Spm, at known concentrations, were allowed to react until the latter had been completely oxidized. mPAO and N^1-acetyl-Spd were similarly allowed to react. Both reactions solutions contained a known amount of N-(3-aminopropyl)-1,10-diaminodecane (Tocris Cookson) as an internal standard. […] Aliquots of these reaction mixtures were treated with dansyl chloride (5-dimethylamino-1-naphthalenesulfonyl chloride) obtained from Sigma. The resulting dansylated polyamine products from each reaction were analyzed by reverse-phase high-pressure liquid chromatography (HPLC) following established procedures (Hunter, Methods in Molecular Biology: Polyamine Protocols, Morgan (ed.) Human Press, Totowa, N.J., Vol. 79, Chapter 14, pp 119-123). […] Detection was accomplished with a Gilson Spetra/Glo fluorescence detector using a 7-51× excitation filter (330-400 nm) and a 3-72M emission filter (460-600 n m). […]
# Aliquots of each of the above described enzyme-reaction solutions were treated with an equal volume of 2,4-dinitrophenylhydrazine (Acros Organics) solution (100 mg in 94 mL ethanol+6 mL of concentrated HCl). […] The 368-nm chromatograms were used for quantitative analyses.
# [1] = tested on: HL-60 human promyelogenous leukemia cells
# From the text: (§1) In this Example, the method used to examine hpao mRNA production by cultured cells undergoing apoptosis is described.
# [2] = tested on: OVCAR-3 human ovarian carcinoma cells; details: approximately 50 μM, within 20 hrs
# From the text: as §1
compound,measurement,setting,value
"CC(=O)NCCCNCCCCNCCCN [N^1-acetyl-Spm, N^1-acetyl-spermine]",3-acetamidopropanal produced on complete oxidation by PAO,"mPAO; 2,4-dinitrophenylhydrazine HPLC",equivalent amount
same,polyamine product of complete PAO oxidation (Spd or putrescine),"mPAO; pH 7.6, catalase present, dansyl chloride HPLC",stoichiometric amounts
same,HL-60 cell survival,"[1]; 24 hrs, all tested concentrations",survived for 24 hrs
same,HL-60 cells survived,"[1]; 72 hrs exposure, 0.05 mM",100%
same,HL-60 cells killed,"[1]; 72 hrs exposure, 0.1 mM",30%
same,HL-60 cells killed,"[1]; 72 hrs exposure, 0.2 mM",50%
same,HL-60 cells killed,"[1]; 72 hrs exposure, 0.5 mM",80%
same,OVCAR-3 cells killed,[2],100%
